Experimental data as given in PubChem BioAssay (NCI).
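Assay format: 96-well plates, 48-hour exposure. GI50 = concentration required for 50% inhibition of growth. TGI: concentration producing complete growth inhibition.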

What was measured:
Test in all cases: DTP human tumour cell line panel, 48 h
[1] = system: COLO 205 colon
[2] = system: A549 NSCLC
[3] = system: NCI/ADR-RES ovarian
[4] = system: KM12 colon
[5] = system: EKVX NSCLC
[6] = system: M14 melanoma
[7] = system: SNB-75 CNS
[8] = system: OVCAR-4 ovarian
[9] = system: ACHN renal
[10] = system: MDA-MB-435
[11] = system: NCI-H522 lung
[12] = system: PC-3 prostate
[13] = system: T-47D breast

Row | SMILES | TGI [1] [µM] | TGI [2] [µM] | TGI [3] [µM] | TGI [4] [µM] | TGI [5] [µM] | TGI [6] [µM] | TGI [7] [µM] | TGI [8] [µM] | TGI [9] [µM] | TGI [10] [µM] | TGI [11] [µM] | TGI [12] [µM] | TGI [13] [µM] | GI50 [8] [µM]
1 | CC12C3C4C1C1C2C3C41CO (stereo unspecified) | > 100 | > 100 | > 100 | > 100 | > 100 | > 100 | > 100 | > 100 | > 100 | > 100 |  |  |  | 
2 | CN(CC(=O)O)c1ncc2c(n1)C=CCC2 | > 100 | > 100 | > 100 | > 100 | > 100 | > 100 | > 100 | > 100 | > 100 | > 100 | > 100 | > 100 |  | 
3 | O=C1CSC(c2c[nH]c3ccccc23)N1c1ccc(Cl)cc1 (stereo unspecified) | > 100 | > 100 | > 100 | > 100 | > 100 | > 100 | > 100 | > 100 | > 100 | > 100 |  |  | > 100 | 
4 | CC1(c2sccc2Cl)CC(c2sccc2Cl)=C(C#N)C(=C(C#N)C#N)N1 (stereo unspecified) | 41.8 | 75.6 | 57.8 | 46 | 34 | 42.7 |  | 66.1 | 32.5 | 48.3 | 35.8 | 32.8 | 42.1 | 
5 | COc1ccc(/C(C)=N/NC(=O)c2ccncc2)c(OC)c1 | > 10 | > 10 | > 10 | > 10 | > 10 | > 10 | > 10 | > 10 |  |  |  |  | > 10 | 
6 | O=C(Nc1ccc(Cl)cc1C(F)(F)F)C(=O)C1CCCS1(=O)=O (stereo unspecified) | > 100 | > 100 |  | > 100 | > 100 | > 100 | > 100 | > 100 | > 100 |  |  |  |  | 
7 | Cc1c[n+]2c3ccccc3c3ccccc3c2s1 | 26.1 | > 100 |  | 9.4 | > 100 | 35.4 | 12.1 | 32.7 | > 100 |  | 15.7 |  |  | 
8 | N#CCc1c(-c2ccccc2)n(S(=O)(=O)c2ccccc2)c2ccccc12 | > 100 | > 100 |  | > 100 |  | > 100 | 62 | > 100 | > 100 |  |  |  |  | 
9 | CCOC(=O)CC1COc2ccc3c(c21)OCO3 (stereo unspecified) | > 100 | > 100 |  | > 100 | > 100 | > 100 | > 100 | > 100 | > 100 |  |  |  |  | 
10 | CC(=O)c1[nH]c(NC(C)C)c(C(=S)Nc2ccccc2)c1N | > 100 | 94.3 | > 100 | > 100 | > 100 | 39.7 | > 100 | > 100 | > 100 | 49 | 31.7 |  | 82.6 | 
11 | COc1cc2c3cc1Oc1c(O)c(OC)cc4c1C(Cc1ccc(O)c(c1)Oc1ccc(cc1)CC3N(C)CC2)N(C)CC4 (stereo unspecified) | 43.4 | 31.4 |  | 23.6 | 37.1 | 7.8 | 35.3 | 28.2 | 33.7 |  | 29.7 |  |  | 
12 | CSC1NC(c2ccccc2)=C(C#N)C(=O)N1C1OCC(OC(C)=O)C(OC(C)=O)C1OC(C)=O (stereo unspecified) | > 100 | > 100 | > 100 | > 100 | > 100 | > 100 | > 100 | > 100 | > 100 | > 100 | > 100 | > 100 |  | 
13 | COC(=O)C1CCC(=O)N1C(c1cc(OC)c(OC)c(OC)c1)c1cc(OC)c(OC)c(OC)c1 (stereo unspecified) |  | > 100 |  | > 100 | > 100 | > 100 | > 100 |  | > 100 | > 100 | > 100 | > 100 | > 100 | 
14 | C=CCNC(=S)N1CC(C)C(=O)Nc2cc(Cl)ccc21 (stereo unspecified) | > 100 | > 100 |  | > 100 | > 100 | > 100 | > 100 | > 100 | > 100 |  | > 100 |  |  | 
15 | COc1ccccc1Cc1ccc(C2C=CC3(CC(=O)C=C3C)C(=O)C2)o1 (stereo unspecified) | 50.5 | > 100 | > 100 | > 100 | > 100 | > 100 |  | > 100 | > 100 | 46.8 | 37.4 | 38.3 |  | 
16 | O=C(CN(C(=O)OC12CC3CC(CC(C3)C1)C2)C(=O)OC12CC3CC(CC(C3)C1)C2)Oc1ccc([N+](=O)[O-])cc1 | > 100 | > 100 | > 100 | > 100 | > 100 | > 100 | > 100 | > 100 | > 100 | > 100 | > 100 | > 100 |  | 
17 | O=C(O)/C(Cl)=C(\Cl)C(=O)c1ccccc1 | > 100 | > 100 |  | > 100 | > 100 | > 100 | > 100 | > 100 | > 100 |  | > 100 |  |  | 
18 | NNC(=O)CC(=O)Nc1cccc(Cl)c1 | > 100 | > 100 |  | > 100 | > 100 |  | > 100 | > 100 | > 100 | > 100 | > 100 | > 100 | > 100 | 
19 | Nc1ccc2[nH]c(-c3cccc(C(F)(F)F)c3)cc(=O)c2c1 | > 100 | > 100 | > 100 | > 100 | > 100 | > 100 | 96.9 | > 100 | > 100 | 88.6 | > 100 | 97.7 |  | 62.9
20 | O=C1c2ccccc2C(=O)N1CCSCC(CO)SCCN1C(=O)c2ccccc2C1=O (stereo unspecified) | > 100 | > 100 | > 100 | > 100 | > 100 | > 100 |  | > 100 | > 100 | > 100 | > 100 | > 100 | > 100 | 
